The text below walks through data of US8053627B2, “Methods for treating demyelination disorders” (University of Chicago, priority 2005, dated 2011).

One experiment relates to corpus callosum. As to the kind of experiment: Cuprizone remyelination in double transgenic mice on PERK+/+ or PERK+/− background. In kind it is in vivo. Conditions: for remyelinated axons: 9 weeks. The source says:
The involvement of the ER stress response in the reduction caused by IFN-γ to remyelinate lesions was examined in transgenic mice that were generated to be heterozygous for a loss of function mutation in pancreatic ER kinase (PERK) (Harding, et al., (2001) Mol Cell 7:1153-1163), and to be temporally regulated for expressing INF-γ in the CNS. TRE/IFN-γ mice were first crossed with PERK+/− mice (Harding, et al. (2001) Mol. Cell 7: 1153-1163) on the C57BL/6 background to generate mice the carry the PERK mutation, and the resulting progeny were crossed to GFAP/tTA mice to obtain transgenic mice that were heterozygous for the PERK mutation. The effect of PERK on remyelination in the presence or absence of INF-γ was evaluated as evaluated as a function of the level of meylination of oligodendrocytes in remyelinating lesions and the number of oligodendrocytes present in the remyelinating lesion.
The extent of remyelination was assessed as described in the previous examples in the corpus callosum of PERK+/+ and PERK+/− mice that were made to express INF-γ (DOX−PERK+/+ and DOX−PERK+/−), and in mice in which the expression of INF-γ was repressed (DOX+PERK+/+ and DOX+PERK+/−). Remyelination was determined by electron microscopy, and was related to the number of CC1 positive oligodendrocytes and the level of caspase-3 expression in the corpus callosum of all animals. The level of caspase-3 was determined by immunohistochemical methods using anti capsase antibody (active-casoase-3 antibody, 1:50; Cel Signaling Technology) and according to the method described in Example 1. Demyelination was induced in six-week-old GFAP/tTA; TRE/IFN-γ double transgenic mice on a PERK+/− background that had been maintained on doxycycline, by simultaneously treating the mice with 0.2% cuprizone and releasing them from doxycycline (DOX−PERK+/−). Remyelination was allowed to occur by withdrawing cuprizone at week 6.

Experiment [1] deals with Hippocampal organotypic cultures. As to the kind of experiment: Hippocampal organotypic cultures (HOC), in vitro model of myelination, MBP Western blot. The class given is cell-based. As to conditions: 7 days of 100 U/ml IFN-γ exposure. The method, then:
HOCs, were prepared and maintained as described previously (Kunkler and Kraig (1997) J Cereb Blood Flow Metab. 17:2643), and were maintained in vitro for 7 days before use. SAL at various concentrations was combined with 100 U/ml IFN-γ and added to the HOC cultures for 7 days. […] After 7 days of 100 U/ml IFN-γ exposure, the levels of MBP decreased approximately 80% in the HOCs (FIG. 29).
In general terms: A western blot detects proteins with antibodies after separation by electrophoresis.

A further experiment concerns Stat1. Briefly: Stat1 nuclear translocation assay in mixed primary oligodendrocyte cultures. The class given is cell-based, mice. As to conditions: 100 U/mL IFN-γ for 30 min, one hundred PLP positive cells counted. The method, then: Mixed primary oligodendrocyte cultures were prepared as previously described (Baerwald et al., 2000). Briefly, brain tissue was harvested from 2-3-day-old newborn pups of PLP/SOCS1 and C57B1/6J matings. Because the litters contained transgenic and wild-type pups, the brain of each animal was processed individually, cultured separately, and later genotype matched. Each brain was digested separately using 0.25% trypsin and 10 μg/ml of DNAaseI (Invitrogen) in Dulbecco's modified Eagle's medium (DMEM) for 20 min at 37° C., and cells were cultured on separate poly-D-lysine-coated […] flasks (Sigma-Aldrich). The cultures were maintained with 10% fetal bovine serum DMEM at 37° C. with 5% CO2 for 12 days, and then switched to a defined medium containing […], 50 μg/ml of transferrin, 30 nM of selenium, 10 nM of biotin, 10 nM of progesterone, 15 nM of T3, 0.1% bovine serum albumin, and 1% ampicillin-streptomycin (Sigma-Aldrich). […] One hundred PLP positive cells were manually counted in both wild-type and PLP/SOCS1 cultures. […]
The responsiveness of PLP/SOCS1 oligodendrocytes to IFN-γ was studied in primary mixed glial cultures. […] In contrast, Stat1 nuclear translocation was detected only in occasional PLP positive oligodendrocytes (6±2 cells) following IFN-γ stimulation (p<0.05).

For “IFN-γ: pleotropic cytokine secreted by activated T lymphocytes and natural killer cells; delivered to the CNS by transgene or added as recombinant protein”, the remyelinated axons is given as 31.1%±7.6% with corpus callosum (DOX−PERK+/+) and 15.6%±7.6% in the experiment with corpus callosum (DOX−PERK+/−). In addition, in the experiment on corpus callosum (DOX−PERK+/+, week 9), the CC1 positive oligodendrocytes is on record as 123.2±27.5 /0.04 mm^2. The “caspase-3 positive oligodendrocytes, DOX−PERK+/− relative to DOX−PERK+/+” value in the experiment on corpus callosum (week 9) worked out at 2.3 times. In addition, the “decrease of MBP levels in the HOCs” value in experiment [1] was “approximately 80%”. Also, the “PLP positive oligodendrocytes with Stat1 nuclear translocation” value is given as 6±2 cells in the experiment with Stat1 (PLP/SOCS1 cultures) and 96±3 cells with Stat1 (wild-type cultures).
